Tested on: participants diagnosed with MELAS
Assay: MELAS study: inflammatory biomarkers in plasma (InflammationMAP panel)
Format: in vivo, human
Method: Plasma and serum samples for biomarkers were collected from each participant. These biomarkers tested the target engagement of Compound I as well as the impact of the compound on disease. Plasma or serum samples were analyzed for concentrations of growth differentiation factor 15 (GDF-15), lactate, pyruvate, alanine, neurofilament light chain (NFL), vascular cell adhesion molecule 1, interleukin-1beta, asymmetric dimethylarginine (ADMA), L arginine, and other biomarkers relevant to the pathophysiology of mitochondrial disease, as well as their response to Compound I.
This change was observed across all brain regions of interest. Effect size throughout this disclosure is defined as the means change from baseline in a particular parameter that is being measured, divided by the standard deviation. Effect sizes closer to 1 or −1 (positive or negative dependent on the direction of movement for the specific parameter, i.e. +0.8 to +1.0 or −0.8 to −1.0) are usually considered large. Effect sizes between 0.5 and 0.8 or −0.5 and −0.8 (positive or negative dependent on the direction of movement for the specific parameter) are usually considered moderate. Effect sizes closer to below 0.5 or −0.5 (positive or negative dependent on the direction of movement for the specific parameter) are usually considered small.
26 out of the 40 (65%) inflammatory biomarkers assessed in plasma as part of the InflammationMAP® panel were reduced with effect sizes less or equal than −0.3. Only 3 of the 40 (7.5%) inflammatory biomarkers assessed in plasma increased with an effect size equal or more than 0.3. The changes in concentrations as well as the effect sizes for inflammatory markers measured in plasma are summarized in the 3 tables below (Table 1: large effect size; Table 2: moderate effect size and Table 3: small effect size). The concentration values in Tables 1-3 were measured in the standard units for each of these laboratory measures as known in the art. Many of these biomarkers tended to increase again back to baseline levels after treatment with Compound I was stopped, supporting a drug effect.

Fc1ccccc1Cc1nc(-c2nc(C(F)(F)F)n[nH]2)cn2ccnc12 [Compound I, zagociguat]
Alpha-1-Antitrypsin, Effect size (15 mg QD, day 29 vs baseline): −0.4 | Alpha-1-Antitrypsin, change in concentration, Mean (15 mg QD, day 29 vs baseline): −0.2 | Alpha-2-Macroglobulin, Effect size (15 mg QD, day 29 vs baseline): −0.3 | Alpha-2-Macroglobulin, change in concentration, Mean (15 mg QD, day 29 vs baseline): −0.2 | Beta-2-Microglobulin, Effect size (15 mg QD, day 29 vs baseline): −1.0 | Beta-2-Microglobulin, change in concentration, Mean (15 mg QD, day 29 vs baseline): −0.5 | Brain-Derived Neurotrophic Factor, Effect size (15 mg QD, day 29 vs baseline): −0.5 | Brain-Derived Neurotrophic Factor, change in concentration, Mean (15 mg QD, day 29 vs baseline): −2.1 | C-Reactive Protein, Effect size (15 mg QD, day 29 vs baseline): −0.6 | C-Reactive Protein, change in concentration, Mean (15 mg QD, day 29 vs baseline): −3.4 | EN-RAGE, Effect size (15 mg QD, day 29 vs baseline): −0.4 | EN-RAGE, change in concentration, Mean (15 mg QD, day 29 vs baseline): −28.4 | Eotaxin-1, Effect size (15 mg QD, day 29 vs baseline): −0.4 | Eotaxin-1, change in concentration, Mean (15 mg QD, day 29 vs baseline): −10.1 | Factor VII, Effect size (15 mg QD, day 29 vs baseline): −0.4 | Factor VII, change in concentration, Mean (15 mg QD, day 29 vs baseline): −87.4 | Ferritin, Effect size (15 mg QD, day 29 vs baseline): −0.6 | Ferritin, change in concentration, Mean (15 mg QD, day 29 vs baseline): −21.4 | Fibrinogen, Effect size (15 mg QD, day 29 vs baseline): −0.4 | Fibrinogen, change in concentration, Mean (15 mg QD, day 29 vs baseline): −1.4 | Granulocyte-Macrophage Colony-Stimulating Factor, Effect size (15 mg QD, day 29 vs baseline): −0.4 | Granulocyte-Macrophage Colony-Stimulating Factor, change in concentration, Mean (15 mg QD, day 29 vs baseline): −13.6 | Immunoglobulin A, Effect size (15 mg QD, day 29 vs baseline): −0.5 | Immunoglobulin A, change in concentration, Mean (15 mg QD, day 29 vs baseline): −0.4 | Immunoglobulin M, Effect size (15 mg QD, day 29 vs baseline): −0.6 | Immunoglobulin M, change in concentration, Mean (15 mg QD, day 29 vs baseline): −0.4 | Intercellular Adhesion Molecule 1, Effect size (15 mg QD, day 29 vs baseline): −0.3 | Intercellular Adhesion Molecule 1, change in concentration, Mean (15 mg QD, day 29 vs baseline): −12.1 | Interleukin-10 (IL-10), Effect size (15 mg QD, day 29 vs baseline): 0.4 | Interleukin-10 (IL-10), change in concentration, Mean (15 mg QD, day 29 vs baseline): 0.3 | Interleukin-17 (IL-17), Effect size (15 mg QD, day 29 vs baseline): 0.5 | Interleukin-17 (IL-17), change in concentration, Mean (15 mg QD, day 29 vs baseline): 0.03 | Interleukin-18, Effect size (15 mg QD, day 29 vs baseline): −0.4 | Interleukin-18, change in concentration, Mean (15 mg QD, day 29 vs baseline): −25.6 | Matrix Metalloproteinase-9 (MMP-9), Effect size (15 mg QD, day 29 vs baseline): 0.4 | Matrix Metalloproteinase-9 (MMP-9), change in concentration, Mean (15 mg QD, day 29 vs baseline): 37.3 | Myoglobin, Effect size (15 mg QD, day 29 vs baseline): −0.4 | Myoglobin, change in concentration, Mean (15 mg QD, day 29 vs baseline): −32.5 | Plasminogen Activator Inhibitor 1, Effect size (15 mg QD, day 29 vs baseline): −0.4 | Plasminogen Activator Inhibitor 1, change in concentration, Mean (15 mg QD, day 29 vs baseline): −11.6 | Pulmonary and Activation-Regulated Chemokine, Effect size (15 mg QD, day 29 vs baseline): −0.5 | Pulmonary and Activation-Regulated Chemokine, change in concentration, Mean (15 mg QD, day 29 vs baseline): −15.3 | Serum Amyloid P-Component, Effect size (15 mg QD, day 29 vs baseline): −0.9 | Serum Amyloid P-Component, change in concentration, Mean (15 mg QD, day 29 vs baseline): −5.0 | T-Cell-Specific Protein RANTES, Effect size (15 mg QD, day 29 vs baseline): −0.5 | T-Cell-Specific Protein RANTES, change in concentration, Mean (15 mg QD, day 29 vs baseline): −7.2 | Thyroxine-Binding Globulin, Effect size (15 mg QD, day 29 vs baseline): −0.7 | Thyroxine-Binding Globulin, change in concentration, Mean (15 mg QD, day 29 vs baseline): −8.4 | Tumor necrosis factor receptor 2, Effect size (15 mg QD, day 29 vs baseline): −0.7 | Tumor necrosis factor receptor 2, change in concentration, Mean (15 mg QD, day 29 vs baseline): −1.8 | Vascular Cell Adhesion Molecule-1, Effect size (15 mg QD, day 29 vs baseline): −0.6 | Vascular Cell Adhesion Molecule-1, change in concentration, Mean (15 mg QD, day 29 vs baseline): −98.3 | Vascular Endothelial Growth Factor, Effect size (15 mg QD, day 29 vs baseline): −0.3 | Vascular Endothelial Growth Factor, change in concentration, Mean (15 mg QD, day 29 vs baseline): −7.0 | Vitamin D-Binding Protein, Effect size (15 mg QD, day 29 vs baseline): −0.5 | Vitamin D-Binding Protein, change in concentration, Mean (15 mg QD, day 29 vs baseline): −26.5 | von Willebrand Factor, Effect size (15 mg QD, day 29 vs baseline): −0.4 | von Willebrand Factor, change in concentration, Mean (15 mg QD, day 29 vs baseline): −123.4 | inflammatory biomarkers increased with an effect size equal or more than 0.3 (3 of the 40) (40 biomarkers assessed): 7.5% | inflammatory biomarkers reduced with effect sizes less or equal than −0.3 (26 out of the 40) (40 biomarkers assessed): 65%
